Data from ChEMBL document CHEMBL1156471, “Targeting host cell furin proprotein convertases as a therapeutic strategy against bacterial toxins and viral pathogens” (J Biol Chem, 2007).

The substances below were run against Furin (Homo sapiens, UniProt P09958).
Furin, sequence (P09958 whole entry): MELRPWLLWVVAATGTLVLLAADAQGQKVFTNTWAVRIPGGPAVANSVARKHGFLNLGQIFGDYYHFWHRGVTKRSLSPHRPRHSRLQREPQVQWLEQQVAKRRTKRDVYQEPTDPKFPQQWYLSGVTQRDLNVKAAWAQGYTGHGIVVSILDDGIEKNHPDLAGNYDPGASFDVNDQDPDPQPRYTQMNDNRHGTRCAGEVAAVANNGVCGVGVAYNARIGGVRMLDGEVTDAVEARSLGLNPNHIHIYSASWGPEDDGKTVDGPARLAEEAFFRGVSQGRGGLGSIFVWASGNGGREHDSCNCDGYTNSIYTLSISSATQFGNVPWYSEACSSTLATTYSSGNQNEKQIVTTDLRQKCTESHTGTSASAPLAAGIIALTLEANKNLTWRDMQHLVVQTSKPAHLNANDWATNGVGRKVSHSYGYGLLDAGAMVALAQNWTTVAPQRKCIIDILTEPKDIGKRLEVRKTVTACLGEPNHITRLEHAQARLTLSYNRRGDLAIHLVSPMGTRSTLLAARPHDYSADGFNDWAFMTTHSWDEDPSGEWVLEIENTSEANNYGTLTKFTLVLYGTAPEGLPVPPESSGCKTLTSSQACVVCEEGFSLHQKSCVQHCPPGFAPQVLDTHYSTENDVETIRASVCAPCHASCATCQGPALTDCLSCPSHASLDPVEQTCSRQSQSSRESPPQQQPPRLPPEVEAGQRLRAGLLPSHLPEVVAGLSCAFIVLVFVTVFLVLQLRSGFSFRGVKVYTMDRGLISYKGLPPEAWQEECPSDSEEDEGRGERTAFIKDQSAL

Substance | Ki [µM]
H-APRERRRKKR-OH | > 0.1
H-APRERRRKKRG-OH | > 0.1
H-APRERRRKKRV-OH | > 0.1
H-GAGAGATPQRARRRKKRW-OH | 0.127
H-GAGAGATPRARRRKKRF-OH | 0.056
H-GAGAGATPRARRRKKRT-OH | 0.047
H-GAGAGATPRARRRKKRY-OH | 0.057
H-GGGGGGTPQRARRRKKRW-OH | 0.088
H-GGGGGGTPRARRRKKRF-OH | 0.045
H-GGGGGGTPRARRRKKRT-OH | 0.066
H-GGGGGGTPRARRRKKRY-OH | 0.054
H-GGGTPQRARRRKKRW-OH | 0.067
H-GGGTPRARRRKKRF-OH | 0.067
H-GGGTPRARRRKKRT-OH | 0.039
H-GGGTPRARRRKKRY-OH | 0.042
H-TAAERRRKKR-OH | > 0.1
H-TAAERRRKKRG-OH | > 0.1
H-TAAERRRKKRV-OH | > 0.1
H-TARERRRKKR-OH | > 0.1
H-TARERRRKKRG-NH2 | > 0.1
H-TARERRRKKRG-OH | > 0.1
H-TARERRRKKRV-OH | > 0.1
H-TPAAARRKKR-OH | > 0.1
H-TPAAARRKKRG-OH | > 0.1
H-TPAAARRKKRV-OH | > 0.1
H-TPAARRRKKR-OH | > 0.1

Substance | Ki [µM]
H-TPAARRRKKRG-OH | > 0.1
H-TPAARRRKKRV-OH | > 0.1
H-TPAERRRKKR-OH | > 0.1
H-TPAERRRKKRG-NH2 | > 0.1
H-TPAERRRKKRG-OH | > 0.1
H-TPAERRRKKRV-OH | > 0.1
H-TPQRARRRKKRA-OH | 0.115
H-TPQRARRRKKRC-OH | > 0.1
H-TPQRARRRKKRD-OH | 0.05
H-TPQRARRRKKRE-OH | 0.103
H-TPQRARRRKKRH-OH | > 0.1
H-TPQRARRRKKRI-OH | > 0.1
H-TPQRARRRKKRL-OH | > 0.1
H-TPQRARRRKKRM-OH | 0.058
H-TPQRARRRKKRN-OH | > 0.1
H-TPQRARRRKKRP-OH | > 0.1
H-TPQRARRRKKRQ-OH | > 0.1
H-TPQRARRRKKRS-OH | > 0.1
H-TPQRARRRKKRV-OH | 0.048
H-TPQRDRRRKKRG-OH | > 0.1
H-TPQRFRRRKKRG-OH | > 0.1
H-TPQRGRRRKKRG-OH | > 0.1
H-TPQRHRRRKKRG-OH | > 0.1
H-TPQRIRRRKKRG-OH | > 0.1
H-TPQRNRRRKKRG-OH | > 0.1
H-TPQRPRRRKKRG-OH | > 0.1

Substance | Ki [µM]
H-TPQRQRRRKKRG-OH | > 0.1
H-TPQRSRRRKKRG-OH | > 0.1
H-TPQRTRRRKKRG-OH | > 0.1
H-TPQRVRRRKKRG-OH | > 0.1
H-TPQRWRRRKKRG-OH | > 0.1
H-TPQRYRRRKKRG-OH | > 0.1
H-TPRAARRKKR-OH | > 0.1
H-TPRAARRKKRG-OH | > 0.1
H-TPRAARRKKRV-OH | > 0.1
H-TPRARRRKKRA-NH2 | > 0.1
H-TPRARRRKKRA-OH | > 0.1
H-TPRARRRKKRD-OH | 0.056
H-TPRARRRKKRE-NH2 | > 0.1
H-TPRARRRKKRE-OH | > 0.1
H-TPRARRRKKRF-NH2 | 0.038
H-TPRARRRKKRG-NH2 | 0.057
H-TPRARRRKKRG-OH | 0.057
H-TPRARRRKKRH-NH2 | > 0.1
H-TPRARRRKKRH-OH | > 0.1
H-TPRARRRKKRI-OH | 0.03
H-TPRARRRKKRK-NH2 | > 0.1
H-TPRARRRKKRK-OH | > 0.1
H-TPRARRRKKRN-NH2 | 0.045
H-TPRARRRKKRN-OH | 0.045
H-TPRARRRKKRP-NH2 | > 0.1
H-TPRARRRKKRP-OH | > 0.1

Substance | Ki [µM]
H-TPRARRRKKRQ-NH2 | 0.047
H-TPRARRRKKRQ-OH | 0.047
H-TPRARRRKKRR-NH2 | > 0.1
H-TPRARRRKKRR-OH | > 0.1
H-TPRARRRKKRS-NH2 | > 0.1
H-TPRARRRKKRS-OH | > 0.1
H-TPRARRRKKRV-NH2 | 0.08
H-TPRARRRKKRV-OH | 0.08
H-TPRARRRKKRW-OH | 0.059
H-TPRARRRKKRY-OH | 0.053
H-TPRCRRRKKRG-NH2 | > 0.1
H-TPRCRRRKKRG-OH | > 0.1
H-TPRDRRRKKRG-NH2 | > 0.1
H-TPRDRRRKKRG-OH | > 0.1
H-TPREAAAKKR-OH | > 0.1
H-TPREAAAKKRG-OH | > 0.1
H-TPREAAAKKRV-OH | > 0.1
H-TPREAARKKR-OH | > 0.1
H-TPREAARKKRG-OH | > 0.1
H-TPREAARKKRV-OH | > 0.1
H-TPREARRKKR-OH | > 0.1
H-TPREARRKKRG-NH2 | > 0.1
H-TPREARRKKRG-OH | > 0.1
H-TPREARRKKRV-OH | > 0.1
H-TPRERAAKKR-OH | > 0.1
H-TPRERAAKKRG-OH | > 0.1

Substance | Ki [µM]
H-TPRERAAKKRV-OH | > 0.1
H-TPRERARKKR-OH | > 0.1
H-TPRERARKKRG-NH2 | > 0.1
H-TPRERARKKRG-OH | > 0.1
H-TPRERARKKRV-OH | > 0.1
H-TPRERRAAKR-OH | > 0.1
H-TPRERRAAKRG-OH | > 0.1
H-TPRERRAAKRV-OH | > 0.1
H-TPRERRAKKR-OH | > 0.1
H-TPRERRAKKRG-NH2 | > 0.1
H-TPRERRAKKRG-OH | > 0.1
H-TPRERRAKKRV-OH | > 0.1
H-TPRERRRAARV-OH | > 0.1
H-TPRERRRAKR-OH | > 0.1
H-TPRERRRAKRG-NH2 | > 0.1
H-TPRERRRAKRG-OH | > 0.1
H-TPRERRRAKRV-OH | > 0.1
H-TPRERRRKAA-OH | > 0.1
H-TPRERRRKAAG-OH | > 0.1
H-TPRERRRKAAV-OH | > 0.1
H-TPRERRRKAR-OH | > 0.1
H-TPRERRRKARG-NH2 | > 0.1
H-TPRERRRKARG-OH | > 0.1
H-TPRERRRKARV-OH | > 0.1
H-TPRERRRKKA-OH | > 0.1
H-TPRERRRKKAG-NH2 | > 0.1

Substance | Ki [µM]
H-TPRERRRKKAG-OH | > 0.1
H-TPRERRRKKAV-OH | > 0.1
H-TPRERRRKKR-OH | > 0.1
H-TPRERRRKKRV-OH | > 0.1
H-TPRFRRRKKRG-NH2 | > 0.1
H-TPRFRRRKKRG-OH | > 0.1
H-TPRGRRRKKRG-NH2 | > 0.1
H-TPRGRRRKKRG-OH | > 0.1
H-TPRHRRRKKRG-NH2 | > 0.1
H-TPRHRRRKKRG-OH | > 0.1
H-TPRIRRRKKRG-NH2 | > 0.1
H-TPRIRRRKKRG-OH | > 0.1
H-TPRLRRRKKRG-NH2 | > 0.1
H-TPRLRRRKKRG-OH | > 0.1
H-TPRMRRRKKRG-NH2 | > 0.1
H-TPRMRRRKKRG-OH | > 0.1
H-TPRNRRRKKRG-NH2 | > 0.1
H-TPRNRRRKKRG-OH | > 0.1
H-TPRPRRRKKRG-NH2 | > 0.1
H-TPRPRRRKKRG-OH | > 0.1
H-TPRQRRRKKRG-NH2 | > 0.1
